Molecules are shown by their SMILES.
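Also: spheroids exposed to drugs for seven days before readout.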

The first test deals with 843126-344-R-J1-PDC complex spheroid viability. As to the kind of experiment: Anticancer human tumor 843126-344-R-J1-PDC patient-derived melanoma cell line growth inhibition [POLQ]. The settings on record: second compound 3.16 µM; first compound 0.0316 µM; hits give low values. The method, boiled down: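 Growth inhibition in 3D: complex spheroids (tumor PDC, HUVEC, MSC) treated with POLQ inhibitor combinations; where Cmax unknown, highest tested concentration 10 microM, except SN-38 at 1 microM.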
Turning to `CNCc1ccc(-c2[nH]c3cc(F)cc4c3c2CCNC4=O)cc1` + Nc1ccc(C#CCN(C(=O)Cc2ncc(C(F)(F)F)cc2C(F)(F)F)c2ccc(F)cc2)nn1, the viability, T/C (usually the result in the treated group divided by that in the control group, in per cent) was 92.6%.
On the same count and under the same terms, in the case of `O=C(c1cc(Cc2n[nH]c(=O)c3ccccc23)ccc1F)N1CCN(C(=O)C2CC2)CC1` + Nc1ccc(C#CCN(C(=O)Cc2ncc(C(F)(F)F)cc2C(F)(F)F)c2ccc(F)cc2)nn1 it was 92.7%.

Still in this test, the particulars now being: second compound 3.16 µM; first compound 0.1 µM; hits give low values.
In the case of `C=CCn1c(=O)c2cnc(Nc3ccc(N4CCN(C)CC4)cc3)nc2n1-c1cccc(C(C)(C)O)n1` + Nc1ccc(C#CCN(C(=O)Cc2ncc(C(F)(F)F)cc2C(F)(F)F)c2ccc(F)cc2)nn1, the viability, T/C was 106%.
In the case of `CCc1c2c(nc3ccc(O)cc13)-c1cc3c(c(=O)n1C2)COC(=O)[C@]3(O)CC` + Nc1ccc(C#CCN(C(=O)Cc2ncc(C(F)(F)F)cc2C(F)(F)F)c2ccc(F)cc2)nn1, the viability, T/C is 72.5%.
For the molecule `CNCc1ccc(-c2[nH]c3cc(F)cc4c3c2CCNC4=O)cc1` + Nc1ccc(C#CCN(C(=O)Cc2ncc(C(F)(F)F)cc2C(F)(F)F)c2ccc(F)cc2)nn1, the viability, T/C is 86.3%.
On the same count and under the same terms, in the case of `O=C(c1cc(Cc2n[nH]c(=O)c3ccccc23)ccc1F)N1CCN(C(=O)C2CC2)CC1` + Nc1ccc(C#CCN(C(=O)Cc2ncc(C(F)(F)F)cc2C(F)(F)F)c2ccc(F)cc2)nn1 it was 93.7%.

The same test, now with this note: second compound 3.16 µM; first compound 0.316 µM; hits give low values.
In the case of `C=CCn1c(=O)c2cnc(Nc3ccc(N4CCN(C)CC4)cc3)nc2n1-c1cccc(C(C)(C)O)n1` + Nc1ccc(C#CCN(C(=O)Cc2ncc(C(F)(F)F)cc2C(F)(F)F)c2ccc(F)cc2)nn1, the viability, T/C is 75%.
The same measure, in the same setting: as for `CCc1c2c(nc3ccc(O)cc13)-c1cc3c(c(=O)n1C2)COC(=O)[C@]3(O)CC` + Nc1ccc(C#CCN(C(=O)Cc2ncc(C(F)(F)F)cc2C(F)(F)F)c2ccc(F)cc2)nn1, the figure is 63.3%.
Same read-out and setting: in the case of `CNCc1ccc(-c2[nH]c3cc(F)cc4c3c2CCNC4=O)cc1` + Nc1ccc(C#CCN(C(=O)Cc2ncc(C(F)(F)F)cc2C(F)(F)F)c2ccc(F)cc2)nn1 it was 95.2%; in that of `O=C(c1cc(Cc2n[nH]c(=O)c3ccccc23)ccc1F)N1CCN(C(=O)C2CC2)CC1` + Nc1ccc(C#CCN(C(=O)Cc2ncc(C(F)(F)F)cc2C(F)(F)F)c2ccc(F)cc2)nn1, 85.8%.

The test is the same for the next values; noted with them: second compound 3.16 µM; first compound 1 µM; hits give low values.
Regarding `C=CCn1c(=O)c2cnc(Nc3ccc(N4CCN(C)CC4)cc3)nc2n1-c1cccc(C(C)(C)O)n1` + Nc1ccc(C#CCN(C(=O)Cc2ncc(C(F)(F)F)cc2C(F)(F)F)c2ccc(F)cc2)nn1, the viability, T/C is 59.8%.
Turning to `CCc1c2c(nc3ccc(O)cc13)-c1cc3c(c(=O)n1C2)COC(=O)[C@]3(O)CC` + Nc1ccc(C#CCN(C(=O)Cc2ncc(C(F)(F)F)cc2C(F)(F)F)c2ccc(F)cc2)nn1, the viability, T/C is 52.2%.
Still for that read-out and setting: in the case of `CNCc1ccc(-c2[nH]c3cc(F)cc4c3c2CCNC4=O)cc1` + Nc1ccc(C#CCN(C(=O)Cc2ncc(C(F)(F)F)cc2C(F)(F)F)c2ccc(F)cc2)nn1 it was 83.6%; in that of `O=C(c1cc(Cc2n[nH]c(=O)c3ccccc23)ccc1F)N1CCN(C(=O)C2CC2)CC1` + Nc1ccc(C#CCN(C(=O)Cc2ncc(C(F)(F)F)cc2C(F)(F)F)c2ccc(F)cc2)nn1, 92.2%.

Staying with this test, now noted: second compound 3.16 µM; first compound 3.16 µM; hits give low values.
In the case of `CNCc1ccc(-c2[nH]c3cc(F)cc4c3c2CCNC4=O)cc1` + Nc1ccc(C#CCN(C(=O)Cc2ncc(C(F)(F)F)cc2C(F)(F)F)c2ccc(F)cc2)nn1, the viability, T/C is 98.2%.
On the same count and under the same terms, in the case of `O=C(c1cc(Cc2n[nH]c(=O)c3ccccc23)ccc1F)N1CCN(C(=O)C2CC2)CC1` + Nc1ccc(C#CCN(C(=O)Cc2ncc(C(F)(F)F)cc2C(F)(F)F)c2ccc(F)cc2)nn1 it was 80.6%.

The same test, now with this note: second compound 3.16 µM; first compound 10 µM; hits give low values.
For the molecule `CNCc1ccc(-c2[nH]c3cc(F)cc4c3c2CCNC4=O)cc1` + Nc1ccc(C#CCN(C(=O)Cc2ncc(C(F)(F)F)cc2C(F)(F)F)c2ccc(F)cc2)nn1, the viability, T/C is 90.9%.
Take `O=C(c1cc(Cc2n[nH]c(=O)c3ccccc23)ccc1F)N1CCN(C(=O)C2CC2)CC1` + Nc1ccc(C#CCN(C(=O)Cc2ncc(C(F)(F)F)cc2C(F)(F)F)c2ccc(F)cc2)nn1: the viability, T/C is 82.6%.

Still in this test, the particulars now being: second compound 10 µM; first compound 0.00316 µM; hits give low values.
In the case of `C=CCn1c(=O)c2cnc(Nc3ccc(N4CCN(C)CC4)cc3)nc2n1-c1cccc(C(C)(C)O)n1` + Nc1ccc(C#CCN(C(=O)Cc2ncc(C(F)(F)F)cc2C(F)(F)F)c2ccc(F)cc2)nn1, the viability, T/C was 94.1%.
For `CCc1c2c(nc3ccc(O)cc13)-c1cc3c(c(=O)n1C2)COC(=O)[C@]3(O)CC` + Nc1ccc(C#CCN(C(=O)Cc2ncc(C(F)(F)F)cc2C(F)(F)F)c2ccc(F)cc2)nn1, the viability, T/C was 67.7%.

Staying with this test, now noted: second compound 10 µM; first compound 0.01 µM; hits give low values.
For `C=CCn1c(=O)c2cnc(Nc3ccc(N4CCN(C)CC4)cc3)nc2n1-c1cccc(C(C)(C)O)n1` + Nc1ccc(C#CCN(C(=O)Cc2ncc(C(F)(F)F)cc2C(F)(F)F)c2ccc(F)cc2)nn1, the viability, T/C was 83.7%.
Regarding `CCc1c2c(nc3ccc(O)cc13)-c1cc3c(c(=O)n1C2)COC(=O)[C@]3(O)CC` + Nc1ccc(C#CCN(C(=O)Cc2ncc(C(F)(F)F)cc2C(F)(F)F)c2ccc(F)cc2)nn1, the viability, T/C is 55.2%.

Still in this test, the particulars now being: second compound 10 µM; first compound 0.0316 µM; hits give low values.
Consider `C=CCn1c(=O)c2cnc(Nc3ccc(N4CCN(C)CC4)cc3)nc2n1-c1cccc(C(C)(C)O)n1` + Nc1ccc(C#CCN(C(=O)Cc2ncc(C(F)(F)F)cc2C(F)(F)F)c2ccc(F)cc2)nn1, for which the viability, T/C is 84.5%.
On the same count and under the same terms, in the case of `CCc1c2c(nc3ccc(O)cc13)-c1cc3c(c(=O)n1C2)COC(=O)[C@]3(O)CC` + Nc1ccc(C#CCN(C(=O)Cc2ncc(C(F)(F)F)cc2C(F)(F)F)c2ccc(F)cc2)nn1 it was 54.6%.
Still for that read-out and setting: in the case of `CNCc1ccc(-c2[nH]c3cc(F)cc4c3c2CCNC4=O)cc1` + Nc1ccc(C#CCN(C(=O)Cc2ncc(C(F)(F)F)cc2C(F)(F)F)c2ccc(F)cc2)nn1 it was 91.3%; in that of `O=C(c1cc(Cc2n[nH]c(=O)c3ccccc23)ccc1F)N1CCN(C(=O)C2CC2)CC1` + Nc1ccc(C#CCN(C(=O)Cc2ncc(C(F)(F)F)cc2C(F)(F)F)c2ccc(F)cc2)nn1, 80.7%.

The same test, now with this note: second compound 10 µM; first compound 0.1 µM; hits give low values.
Turning to `C=CCn1c(=O)c2cnc(Nc3ccc(N4CCN(C)CC4)cc3)nc2n1-c1cccc(C(C)(C)O)n1` + Nc1ccc(C#CCN(C(=O)Cc2ncc(C(F)(F)F)cc2C(F)(F)F)c2ccc(F)cc2)nn1, the viability, T/C is 91.9%.
On to `CCc1c2c(nc3ccc(O)cc13)-c1cc3c(c(=O)n1C2)COC(=O)[C@]3(O)CC` + Nc1ccc(C#CCN(C(=O)Cc2ncc(C(F)(F)F)cc2C(F)(F)F)c2ccc(F)cc2)nn1, for which the viability, T/C is 69.8%.
Take `CNCc1ccc(-c2[nH]c3cc(F)cc4c3c2CCNC4=O)cc1` + Nc1ccc(C#CCN(C(=O)Cc2ncc(C(F)(F)F)cc2C(F)(F)F)c2ccc(F)cc2)nn1: the viability, T/C is 89.1%.
Take `O=C(c1cc(Cc2n[nH]c(=O)c3ccccc23)ccc1F)N1CCN(C(=O)C2CC2)CC1` + Nc1ccc(C#CCN(C(=O)Cc2ncc(C(F)(F)F)cc2C(F)(F)F)c2ccc(F)cc2)nn1: the viability, T/C was 85.5%.

The same test, now with this note: second compound 10 µM; first compound 0.316 µM; hits give low values.
For `C=CCn1c(=O)c2cnc(Nc3ccc(N4CCN(C)CC4)cc3)nc2n1-c1cccc(C(C)(C)O)n1` + Nc1ccc(C#CCN(C(=O)Cc2ncc(C(F)(F)F)cc2C(F)(F)F)c2ccc(F)cc2)nn1, the viability, T/C was 79.1%.
Same read-out and setting: as for `CCc1c2c(nc3ccc(O)cc13)-c1cc3c(c(=O)n1C2)COC(=O)[C@]3(O)CC` + Nc1ccc(C#CCN(C(=O)Cc2ncc(C(F)(F)F)cc2C(F)(F)F)c2ccc(F)cc2)nn1, the figure is 65.4%.
Same read-out and setting: as for `CNCc1ccc(-c2[nH]c3cc(F)cc4c3c2CCNC4=O)cc1` + Nc1ccc(C#CCN(C(=O)Cc2ncc(C(F)(F)F)cc2C(F)(F)F)c2ccc(F)cc2)nn1, the figure is 91.9%; as for `O=C(c1cc(Cc2n[nH]c(=O)c3ccccc23)ccc1F)N1CCN(C(=O)C2CC2)CC1` + Nc1ccc(C#CCN(C(=O)Cc2ncc(C(F)(F)F)cc2C(F)(F)F)c2ccc(F)cc2)nn1, 88%.

Staying with this test, now noted: second compound 10 µM; first compound 1 µM; hits give low values.
As for `C=CCn1c(=O)c2cnc(Nc3ccc(N4CCN(C)CC4)cc3)nc2n1-c1cccc(C(C)(C)O)n1` + Nc1ccc(C#CCN(C(=O)Cc2ncc(C(F)(F)F)cc2C(F)(F)F)c2ccc(F)cc2)nn1, the viability, T/C was 74.5%.
On the same count and under the same terms, as for `CCc1c2c(nc3ccc(O)cc13)-c1cc3c(c(=O)n1C2)COC(=O)[C@]3(O)CC` + Nc1ccc(C#CCN(C(=O)Cc2ncc(C(F)(F)F)cc2C(F)(F)F)c2ccc(F)cc2)nn1, the figure is 41%; as for `CNCc1ccc(-c2[nH]c3cc(F)cc4c3c2CCNC4=O)cc1` + Nc1ccc(C#CCN(C(=O)Cc2ncc(C(F)(F)F)cc2C(F)(F)F)c2ccc(F)cc2)nn1, 92.9%.
Regarding `O=C(c1cc(Cc2n[nH]c(=O)c3ccccc23)ccc1F)N1CCN(C(=O)C2CC2)CC1` + Nc1ccc(C#CCN(C(=O)Cc2ncc(C(F)(F)F)cc2C(F)(F)F)c2ccc(F)cc2)nn1, the viability, T/C is 92.7%.

Still in this test, the particulars now being: second compound 10 µM; first compound 3.16 µM; hits give low values.
`CNCc1ccc(-c2[nH]c3cc(F)cc4c3c2CCNC4=O)cc1` + Nc1ccc(C#CCN(C(=O)Cc2ncc(C(F)(F)F)cc2C(F)(F)F)c2ccc(F)cc2)nn1: the viability, T/C is 91.5%.
Still for that read-out and setting: as for `O=C(c1cc(Cc2n[nH]c(=O)c3ccccc23)ccc1F)N1CCN(C(=O)C2CC2)CC1` + Nc1ccc(C#CCN(C(=O)Cc2ncc(C(F)(F)F)cc2C(F)(F)F)c2ccc(F)cc2)nn1, the figure is 81.3%.

Staying with this test, now noted: second compound 10 µM; first compound 10 µM; hits give low values.
`CNCc1ccc(-c2[nH]c3cc(F)cc4c3c2CCNC4=O)cc1` + Nc1ccc(C#CCN(C(=O)Cc2ncc(C(F)(F)F)cc2C(F)(F)F)c2ccc(F)cc2)nn1: the viability, T/C is 85.9%.
On the same count and under the same terms, as for `O=C(c1cc(Cc2n[nH]c(=O)c3ccccc23)ccc1F)N1CCN(C(=O)C2CC2)CC1` + Nc1ccc(C#CCN(C(=O)Cc2ncc(C(F)(F)F)cc2C(F)(F)F)c2ccc(F)cc2)nn1, the figure is 68.7%.

These data come from PubChem BioAssay AID1963837 (Molecular Pharmacology Branch, DTP, NCI, 2024).
